Reference: patent publication US20130011378A1, “Stable formulations of a hyaluronan-degrading enzyme” (priority 2011, published 2013)
Structures can show the parent of a compound that is named as a salt. Where two headings read alike, the source gives them in different places. Residues, ends and D or L forms follow the SMILES beside them.

Key:
[1] = Non-denaturing SEC: percent main peak / aggregates of insulin and rHuPH20; assay type: physicochemical
Description: Reference samples were stored in HPLC vials at 10° C. prior to use.
Samples were stored in HPLC vials at 10° C. prior to use, for up to 3 days.
0.5× Phosphate Buffered Saline (PBS) solution was prepared by diluting 10×PBS with HPLC grade water.
Insulin percent purity was expressed as percentage of the insulin main peak versus the total insulin peaks. The target specification is less than 2% high molecular weight protein, i.e., insulin aggregates.
SEC was performed using the following conditions: 1× Phosphate Buffered Saline (PBS), a Toso BioScience G2000 SWXL column, and a flow rate set at 1 mL/min. Data were collected as described above and means were reported and entered into the design table following the sample sequence provided by the DOE software.

[2] = biological target: T1, rHuPH20 (Homo sapiens, UniProt P38567); test: Determination of hyaluronidase activity of rHuPH20, turbidimetric assay (Example 2, variant not specified); assay type: biochemical; details: for Effect on rHuPH20 enzymatic activity: stabilizer screening in rHuPH20/insulin formulation, semi-quantitative in comparison with NaCl, samples incubated at 30° C. for about one week
T1 construct: made in house; host or cells: CHO cells (DG44 CHO, HZ24 plasmid, clone 2B2)
T1 sequence (P38567 36-482): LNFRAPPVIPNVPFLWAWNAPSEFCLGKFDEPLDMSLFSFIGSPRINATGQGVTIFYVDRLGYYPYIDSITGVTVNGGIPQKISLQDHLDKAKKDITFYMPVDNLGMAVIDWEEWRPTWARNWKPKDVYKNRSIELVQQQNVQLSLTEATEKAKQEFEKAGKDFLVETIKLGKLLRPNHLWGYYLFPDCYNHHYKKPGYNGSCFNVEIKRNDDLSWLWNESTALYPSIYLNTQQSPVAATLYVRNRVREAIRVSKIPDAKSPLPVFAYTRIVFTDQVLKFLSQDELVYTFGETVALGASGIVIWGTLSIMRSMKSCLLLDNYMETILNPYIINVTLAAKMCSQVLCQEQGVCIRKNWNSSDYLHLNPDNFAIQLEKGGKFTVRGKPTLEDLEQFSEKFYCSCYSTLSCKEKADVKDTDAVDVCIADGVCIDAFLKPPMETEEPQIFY

[3] = RP-HPLC: insulin apparent solubility / percent recovery
Description: Apparent solubility was measured as the percent insulin recovery as compared to the initial formulations/conditions.
Samples were prepared by withdrawing 100 μL from each vial at every time point and centrifuging prior to loading. Samples were stored in an autosampler at 4° C. prior to use, and were considered stable for 3 days after preparation. All samples were tested in duplicate.
For insulin, 20 μL was injected for each HPLC run.
To determine the apparent solubility, the peak area of insulin/insulin analog main peak and desamido peak were integrated and combined together to calculate the percentage relative to the standards. […] The data were processed using Design-Expert® 7.0 (StatEase) and the “historical data” feature. Insulin percent purity was expressed as the percent of main insulin versus all insulin species.

[4] = 35° C., Table 22 concentrations
[5] = 48 hours, 4° C., preservative levels of Table 22, in U/mL
[6] = 48 hours, 35° C., preservative levels of Table 22, in U/mL
[7] = t = 0, 100 μg/mL rHuPH20, pH 7.3, 140 mM NaCl, 0.01% polysorbate 80, preservative levels of Table 21, in U/mL
[8] = stabilizer screening in rHuPH20/insulin formulation, semi-quantitative in comparison with NaCl, RP-HPLC, samples stored at 5° C.

Molecule: N=C(NCCCCCCNC(=N)NC(=N)Nc1ccc(Cl)cc1)NC(=N)Nc1ccc(Cl)cc1.O=C(O)[C@H](O)[C@@H](O)[C@H](O)[C@H](O)CO.O=C(O)[C@H](O)[C@@H](O)[C@H](O)[C@H](O)CO [Chlorhexidine digluconate]
- % Main rHuPH20 peak by non-denaturing SEC ([1]; 4° C., 1 day): 98.35%
- % Main rHuPH20 peak by non-denaturing SEC ([1]; 4° C., Table 22 concentrations): 99.77%
- % Main rHuPH20 peak by non-denaturing SEC ([1]; 35° C., 1 day): 98.23%
- % Main rHuPH20 peak by non-denaturing SEC [1, 4]: 98.30%
- rHuPH20 activity ([2]; 24 hours, 25° C., in U/mL): 9520
- rHuPH20 activity [2, 5]: 12,090
- rHuPH20 activity [2, 6]: 13,110
- rHuPH20 activity ([2]; 5 days, 25° C., in U/mL): 12310
- rHuPH20 activity ([2]; 6 days, 35° C., in U/mL): 12270
- rHuPH20 activity [2, 7]: 9,590

Molecule: O=C([O-])c1ccccc1.[Na+] [Sodium Benzoate]
- Effect on rHuPH20 enzymatic activity [2]: No effect

Molecule: C[N+](C)(C)[O-] [Trimethylamine oxide (TMAO)]
- Effect on insulin solubility [3, 8]: No effect
- Effect on rHuPH20 enzymatic activity [2]: No effect

Molecule: O=C(O)CCCc1ccccc1 [Phenyl butyric acid]
- Effect on rHuPH20 enzymatic activity [2]: No effect

Molecule: NCC(=O)NCC(=O)O [Gly-Gly] (H-Gly-Gly-OH)
- Effect on rHuPH20 enzymatic activity [2]: No effect

Molecule: OC[C@H]1O[C@H](O[C@H]2O[C@H](CO)[C@@H](O)[C@H](O)[C@H]2O)[C@H](O)[C@@H](O)[C@@H]1O [Trehalose]
- Effect on rHuPH20 enzymatic activity [2]: No effect

Molecule: OCCCCCl [4-Chloro-1-butanol]
- % Main rHuPH20 peak by non-denaturing SEC ([1]; 4° C., 1 day): 97.89%
- % Main rHuPH20 peak by non-denaturing SEC ([1]; 35° C., 1 day): <LOD
- rHuPH20 activity ([2]; 24 hours, 25° C., in U/mL): 3500
- rHuPH20 activity ([2]; 5 days, 25° C., in U/mL): 1440
- rHuPH20 activity ([2]; 6 days, 35° C.): <LOQ
- rHuPH20 activity [2, 7]: 11,350

Molecule: C[N+](C)(C)CC(=O)O [Betaine]
- Effect on insulin solubility [3, 8]: No effect
- Effect on rHuPH20 enzymatic activity [2]: No effect

Molecule: NC(=O)CC[C@H](N)C(=O)O [Glutamine]
- Effect on insulin solubility [3, 8]: No effect
- Effect on rHuPH20 enzymatic activity [2]: No effect

Molecule: Benzalkonium Chloride
- % Main rHuPH20 peak by non-denaturing SEC ([1]; 4° C., 1 day): 99.64%
- % Main rHuPH20 peak by non-denaturing SEC ([1]; 35° C., 1 day): <LOD
- rHuPH20 activity ([2]; 24 hours, 25° C., in U/mL): 10750
- rHuPH20 activity ([2]; 5 days, 25° C., in U/mL): 2710
- rHuPH20 activity ([2]; 6 days, 35° C.): <LOQ
- rHuPH20 activity [2, 7]: 11,740

Molecule: COC(=O)c1ccc(O)cc1 [methylparaben]
- % Main rHuPH20 peak by non-denaturing SEC ([1]; 4° C., Table 22 concentrations): 100.00%
- % Main rHuPH20 peak by non-denaturing SEC [1, 4]: 96.91%
- Enzymatic Activity of rHuPH20 ([2]; preservative 0.3%, 1 Week, 35° C.): 730 U/mL

Molecule: N[C@@H](Cc1ccccc1)C(=O)O [L-Phenylalanine]
- % Main rHuPH20 peak by non-denaturing SEC ([1]; 4° C., 1 day): 98.27%
- % Main rHuPH20 peak by non-denaturing SEC ([1]; 4° C., Table 22 concentrations): 100.00%
- % Main rHuPH20 peak by non-denaturing SEC ([1]; 35° C., 1 day): 98.86%
- % Main rHuPH20 peak by non-denaturing SEC [1, 4]: 99.80%
- rHuPH20 activity ([2]; 24 hours, 25° C., in U/mL): 12100
- rHuPH20 activity [2, 5]: 12,540
- rHuPH20 activity [2, 6]: 13,130
- rHuPH20 activity ([2]; 5 days, 25° C., in U/mL): 11460
- rHuPH20 activity ([2]; 6 days, 35° C., in U/mL): 10660
- rHuPH20 activity [2, 7]: 13,420

Molecule: OC[C@H]1O[C@@](CO)(O[C@H]2O[C@H](CO)[C@@H](O)[C@H](O)[C@H]2O)[C@@H](O)[C@@H]1O [Sucrose]
- Effect on rHuPH20 enzymatic activity [2]: No effect

Molecule: [H]/N=C(\N/C(=N/[H])NCCCCCCNC(=N)NC(=N)Nc1ccc(Cl)cc1)Nc1ccc(Cl)cc1 [Chlorhexidine dihydrochloride]
- % Main rHuPH20 peak by non-denaturing SEC ([1]; 4° C., 1 day): 98.76%
- % Main rHuPH20 peak by non-denaturing SEC ([1]; 35° C., 1 day): 98.12%
- rHuPH20 activity ([2]; 24 hours, 25° C., in U/mL): 8130
- rHuPH20 activity ([2]; 5 days, 25° C., in U/mL): 8750
- rHuPH20 activity ([2]; 6 days, 35° C., in U/mL): 11890
- rHuPH20 activity [2, 7]: 7,720

Molecule: Cc1cccc(O)c1 [m-cresol]
- % Main rHuPH20 peak by non-denaturing SEC ([1]; 4° C., Table 22 concentrations): 100.00%
- % Main rHuPH20 peak by non-denaturing SEC [1, 4]: 0.834%
- rHuPH20 activity [2, 5]: 10,950
- rHuPH20 activity ([2]; 48 hours, 35° C., preservative levels of Table 22): <LOQ
- Enzymatic Activity of rHuPH20 ([2]; preservative 0.05%, 1 Month, 25° C., insulin/rHuPH20 formulation pH 7.1, 140 mM NaCl): 2103 U/mL
- Enzymatic Activity of rHuPH20 ([2]; preservative 0.05%, 1 Week, 35° C.): 2019 U/mL
- Enzymatic Activity of rHuPH20 ([2]; preservative 0.05%, 2 Weeks, 35° C.): 1955 U/mL
- Enzymatic Activity of rHuPH20 ([2]; preservative 0.1%, 1 Month, 25° C.): 2188 U/mL
- Enzymatic Activity of rHuPH20 ([2]; preservative 0.1%, 1 Week, 35° C.): 2147 U/mL
- Enzymatic Activity of rHuPH20 ([2]; preservative 0.1%, 2 Weeks, 35° C.): 2069 U/mL
- Enzymatic Activity of rHuPH20 ([2]; preservative 0.2%, 1 Month, 25° C.): 2013 U/mL
- Enzymatic Activity of rHuPH20 ([2]; preservative 0.2%, 1 Week, 35° C.): 466 U/mL
- Enzymatic Activity of rHuPH20 ([2]; preservative 0.2%, 2 Weeks, 35° C.): 185 U/mL
- Enzymatic Activity of rHuPH20 ([2]; preservative 0.4%, 1 Month, 25° C.): <LOD
- Enzymatic Activity of rHuPH20 ([2]; preservative 0.4%, 1 Week, 35° C.): <LOD
- Enzymatic Activity of rHuPH20 ([2]; preservative 0.4%, 2 Weeks, 35° C.): <LOD

Molecule: C[CH2][Hg][S]c1ccccc1C(=O)[O-].[Na+] [Thimerosal]
- % Main rHuPH20 peak by non-denaturing SEC ([1]; 4° C., 1 day): 98.59%
- % Main rHuPH20 peak by non-denaturing SEC ([1]; 35° C., 1 day): 98.31%
- rHuPH20 activity ([2]; 24 hours, 25° C., in U/mL): 8990
- rHuPH20 activity ([2]; 5 days, 25° C., in U/mL): 8960
- rHuPH20 activity ([2]; 6 days, 35° C., in U/mL): 10070
- rHuPH20 activity [2, 7]: 10,290

Molecule: NCCCC[C@H](N)C(=O)O [Lysine]
- Effect on insulin solubility [3, 8]: No effect
- Effect on rHuPH20 enzymatic activity [2]: No effect

Molecule: OC[C@@H](O)[C@@H](O)[C@H](O)[C@@H](O)CO [sorbitol]
- Effect on rHuPH20 enzymatic activity [2]: No effect

Molecule: OC[C@@H](O)[C@@H](O)[C@H](O)[C@H](O)CO [Mannitol]
- Effect on rHuPH20 enzymatic activity [2]: No effect

Molecule: OCC(O)CO [glycerol]
- Effect on insulin solubility [3]: No/slight effect;
- Effect on rHuPH20 enzymatic activity [2]: No effect

Molecule: O[C@H]1[C@H](O)[C@@H](O)[C@H](O)[C@@H](O)[C@H]1O [Inositol]
- Effect on rHuPH20 enzymatic activity [2]: No effect

Molecule: hyaluronic acid [HA]
- % of the original activity retained ([2]; 1 week at 30° C., pH 7.1, 1 mg/mL HA, 75 mM NaCl): 57%
- % of the original rHuPH20 remained ([2]; 1 week at 30° C., pH 7.1, 5.5 mg/mL HA, 100 mM NaCl): 68%
- % of the original activity retained ([2]; 1 week at 30° C., pH 7.1, 10 mg/mL HA): 85%
- rHuPH20 activity ([2]; 1 week at 30° C., pH 7.1, 10 mg/mL HA, from 600 U/mL): 510 U/mL
- rHuPH20 activity ([2]; rHuPH20/insulin co-formulation, 1 week at 30° C., pH 7.1, 1 mg/mL HA, 75 mM NaCl, from 600 U/mL): 341 U/mL
- effect on rHuPH20 stability in comparison with NaCl ([2]; stabilizer screening, 30° C. about one week, […] m-cresol, 0.2% phenol): stabilized rHuPH20 more than NaCl
